Article PMC11120408 (Foods, 2024)
Where two headings read alike, the source gives them in different places.

How the values were obtained:
α-glucosidase (α-Glu) [1] = target: T1, α-glucosidase (α-Glu) (Saccharomyces cerevisiae, UniProt P53341); assay: biochemical; assay type: biochemical; conditions: for inhibition mode against α-Glu: L-B plots; for Ki: read-out: Ki (inhibition constant, binding to enzyme); for reversibility of inhibition: plots of v vs α-Glu concentration
T1 construct: purchased Shanghai Yuanye Bio-Technology Co., Ltd
T1 sequence (P53341 whole entry): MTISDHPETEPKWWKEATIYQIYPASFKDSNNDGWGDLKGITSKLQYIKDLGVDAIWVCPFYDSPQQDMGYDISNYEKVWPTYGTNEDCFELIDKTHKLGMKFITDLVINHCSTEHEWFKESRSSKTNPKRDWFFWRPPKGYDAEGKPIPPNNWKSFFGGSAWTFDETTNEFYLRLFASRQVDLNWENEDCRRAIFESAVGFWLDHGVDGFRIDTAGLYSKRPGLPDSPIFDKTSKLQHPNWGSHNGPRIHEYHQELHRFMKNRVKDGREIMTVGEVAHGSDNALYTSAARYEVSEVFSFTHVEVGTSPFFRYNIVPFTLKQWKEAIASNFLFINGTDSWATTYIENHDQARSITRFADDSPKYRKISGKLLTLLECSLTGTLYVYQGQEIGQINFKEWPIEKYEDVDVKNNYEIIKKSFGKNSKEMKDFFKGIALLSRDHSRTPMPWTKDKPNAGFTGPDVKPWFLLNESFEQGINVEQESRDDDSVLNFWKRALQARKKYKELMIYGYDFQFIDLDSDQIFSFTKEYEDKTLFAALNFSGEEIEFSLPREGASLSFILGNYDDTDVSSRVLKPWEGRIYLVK
Description: The same procedure in Section 2.2.1 was used to investigate the inhibition mechanisms of AK and MS against α-Glu. Using the Michaelis–Menten equation, inhibitors with various concentrations were utilized to evaluate the kinetic parameters (Km and Vmax). Moreover, the values of two kinetic constants Ki and Kis were determined using the Lineweaver–Burk (L-B) plots. The L-B equation could be expressed in a double reciprocal form for the mixed-type inhibition mechanism analysis:(1) 1/v=Km/Vmax1+I/Ki1/S+1/Vmax1+I/Kis
Km and Vmax denote the Michaelis–Menten constant and the maximum reaction velocity, respectively. [I] and [S] are the concentrations of the inhibitor and substrate, respectively. Ki and Kis represent the inhibition constants to bind with the enzyme and the enzyme–substrate complex, respectively. The secondary plots of the Y-intercept versus [I] are linearly fitted.

α-glucosidase (α-Glu) [2] = target: T1, α-glucosidase (α-Glu); assay: Fluorescence quenching / binding of AK/MS to α-Glu; conditions: for Kq (quenching rate constant): Ksv/τ0; for Kd: read-out: Ka (binding constant) (converted); for fluorescence quenching mechanism: Stern–Volmer analysis; for ΔH^0 / ΔS^0: van't Hoff, 298–310 K; for decrease of synchronous fluorescence intensity of α-Glu: Δλ = 60 nm (Trp); for reduction of three-dimensional fluorescence intensity of Peak 1 of α-Glu: α-Glu 2.0 μM, inhibitor 13.0 μM
Description: The fluorescence spectrum of α-Glu was acquired in the spectral region of 300–450 nm on an F97 Pro spectrofluorometer (Lengguang Tech., Shanghai, China) with both excitation and emission slits of 10 nm, when excited at 280 nm. The solution of α-Glu (2.0 μM) was titrated by successively adding different amounts of AK (final concentrations of 4.0, 8.0, 12.0, 16.0, 20.0, 24.0 and 28.0 μM, respectively) or MS (final concentrations of 1.0, 3.0, 5.0, 7.0, 9.0, 11.0 and 13.0 μM, respectively) at 298, 304, and 310 K.
The synchronous fluorescence spectrum was recorded from 270 to 330 nm, when the interval of the emission and excitation wavelength (Δλ = λem − λex) constant was fixed at 15 and 60 nm, respectively.
The three-dimensional fluorescence spectra of α-Glu with or without AK/MS were measured at 298 K. The excitation wavelength range was from 200 to 360 nm, and the emission was collected from 270 to 330 nm, together with an increment of 10 nm. The final concentrations of α-Glu, AK, and MS were 2.0, 13.0, and 13.0 μM, respectively.
All the samples were thoroughly mixed and kept for 6 min before detection, and the inner-filter effect was eliminated to correct the obtained fluorescence data, referring to our previous report.
Thus, the relative mechanism was investigated through the Stern–Volmer equation:(6) F0/F=1+Ksv[Q]=1+kqτ0[Q] where F0 and F are the fluorescence intensities of α-Glu without and with inhibitors, respectively. Ksv, [Q], kq, and τ0 represent the Stern–Volmer quenching constant, the concentration of inhibitor, the biomolecule quenching rate constant, and the average lifetime of protein in the absence of inhibitors, respectively. Specifically, Ksv is determined by the plot of F0/F against [Q], τ0 is about 10^−8 s, and kq is equal to Ksv/τ0.
The binding constants (Ka) of the α-Glu-AK and α-Glu-MS systems were evaluated by the following equation:(7) logF0−F/F=nlogKa−nlog1/[Qt]−(F0−F)[Pt]/F0 where [Pt] and [Qt] represent the total concentrations of α-Glu and the inhibitor, respectively. n is the number of binding sites.
To better reveal the binding mechanism of AK/MS to α-Glu, the critical forces between them were also explored. Typically, the binding forces between proteins and ligands could be estimated by the calculation of the thermodynamic parameters using the following equations:(8) logKa=−ΔH^0/2.303RT+ΔS^0/2.303R (9) ΔG^0=ΔH^0−TΔS^0 where T represents the absolute temperature (in Kelvin), and R is the universal gas constant (8.314 J mol^−1 K^−1). ΔH^0 and ΔS^0 stand for the enthalpy change and entropy change, respectively, and they could be calculated by the slope and the y-axis intercept in the linearly fitted plot between lnKa and 1/T (Figure S4A,B). Then, the free energy change (ΔG^0) is obtained according to Equation (9).

α-glucosidase (α-Glu) [3] = target: T1, α-glucosidase (α-Glu); assay: biochemical; conditions: Cα-Glu = 0.10 U/mL, CpNPG = 2.08 mM, pH 6.8, 310 K; read-out: IC50 against α-Glu
Description: The stock solutions (2.0 mM) of AK/MS were prepared by dissolving them in dimethyl sulfoxide, respectively. […] The inhibitory activities of AK/MS against α-Glu were assessed in vitro according to the previous method with a slight modification. Firstly, 50 μL of α-Glu and different doses of inhibitors were mixed for 1 h at 310 K. Fifty microliter of pNPG (5.0 mM) was then put in to activate the reaction. After a 30 min incubation, the Na2CO3 solution (0.2 M, 100 μL) was added to stop the reaction. The absorbance of p-nitrophenol converted from pNPG was monitored at 405 nm on an Infinite® M200 PRO plate reader (Tecan, Durham, NC, USA).

[4] = Solubility and light sensitivity (statement, no method)
α-Glu = conditions: read-out: IC50 against α-Glu, cited from earlier work
[5] = mixed-type, L-B secondary plots

Row | SMILES | inhibition mode against α-Glu (α-glucosidase (α-Glu) [1]) | Ki (α-glucosidase (α-Glu) [1]; [5]) | reversibility of inhibition (α-glucosidase (α-Glu) [1]) | Ksv (Stern–Volmer quenching constant) (α-glucosidase (α-Glu) [2]; 298 K) | Kq (quenching rate constant) (α-glucosidase (α-Glu) [2]; 298 K) | Kd (α-glucosidase (α-Glu) [2]; 298 K) | Ksv (Stern–Volmer quenching constant) (α-glucosidase (α-Glu) [2]; 304 K) | ΔG^0 (α-glucosidase (α-Glu) [2]; 304 K) | Kq (quenching rate constant) (α-glucosidase (α-Glu) [2]; 304 K) | Kd (α-glucosidase (α-Glu) [2]; 304 K) | Ksv (Stern–Volmer quenching constant) (α-glucosidase (α-Glu) [2]; 310 K) | ΔG^0 (α-glucosidase (α-Glu) [2]; 310 K) | Kq (quenching rate constant) (α-glucosidase (α-Glu) [2]; 310 K) | Kd (α-glucosidase (α-Glu) [2]; 310 K) | fluorescence quenching mechanism (α-glucosidase (α-Glu) [2]) | ΔH^0 (α-glucosidase (α-Glu) [2]) | ΔS^0 (α-glucosidase (α-Glu) [2]) | decrease of synchronous fluorescence intensity of α-Glu (α-glucosidase (α-Glu) [2]) | reduction of three-dimensional fluorescence intensity of Peak 1 of α-Glu (α-glucosidase (α-Glu) [2]; 298 K) | IC50 (α-glucosidase (α-Glu) [3]) | other results
1 | C/C=C/C1=CC2=C(CO1)C(=O)[C@]1(C)OC(=O)[C@H](C(=O)CCCCCCC)[C@H]1C2 [AK, ankaflavin] | mixed type | 57.8 ± 5.89 µM | reversible inhibitors | 2.23 ± 0.12 10^4 M^−1 | 2.23 ± 0.12 10^12 M^−1s^−1 | 58.1 µM | 2.08 ± 0.07 10^4 M^−1 | -2.488 ± 0.0813 kcal/mol | 2.08 ± 0.07 10^12 M^−1s^−1 | 63.3 µM | 1.91 ± 0.08 10^4 M^−1 | -2.519 ± 0.0526 kcal/mol | 1.91 ± 0.08 10^12 M^−1s^−1 | 69.4 µM | static quenching | -0.841 ± 0.0048 kcal/mol | 22.66 ± 0.84 J mol^−1K^−1 | 59.4% | 24.9% | 127 ± 2.5 µM | Vmax of α-Glu (α-glucosidase (α-Glu) [1]; inhibitor 30 μM): 4.02 ± 0.07 µM/min; Vmax of α-Glu (α-glucosidase (α-Glu) [1]; inhibitor 40 μM): 3.86 ± 0.04 µM/min; Kis (inhibition constant, binding to enzyme–substrate complex) (α-glucosidase (α-Glu) [1]; [5]): 3.45 ± 0.06 µM
2 | C/C=C/C1=CC2=C(CO1)C(=O)[C@]1(C)OC(=O)[C@H](C(=O)CCCCC)[C@H]1C2 [MS, monascin] | mixed type | 298 ± 18.1 µM | reversible inhibitors | 2.09 ± 0.02 10^4 M^−1 | 2.09 ± 0.02 10^12 M^−1s^−1 | 70.9 µM | 1.94 ± 0.04 10^4 M^−1 | -2.536 ± 0.0048 kcal/mol | 1.94 ± 0.04 10^12 M^−1s^−1 | 76.3 µM | 1.58 ± 0.03 10^4 M^−1 | -2.562 ± 0.0072 kcal/mol | 1.58 ± 0.03 10^12 M^−1s^−1 | 80.6 µM | static quenching | -1.18 ± 0.0239 kcal/mol | 18.68 ± 3.20 J mol^−1K^−1 | 33.9% | 20.0% | 302.6 ± 2.5 µM | sensitivity to light [4]: sensitive to light; solubility [4]: poor; Vmax of α-Glu (α-glucosidase (α-Glu) [1]; inhibitor 100 μM): 1.85 ± 0.04 µM/min; Vmax of α-Glu (α-glucosidase (α-Glu) [1]; inhibitor 200 μM): 1.76 ± 0.08 µM/min
3 | C[C@H]1O[C@H](O[C@H]2[C@H](O)[C@@H](O)[C@@H](O[C@H]3[C@H](O)[C@@H](O)C(O)O[C@@H]3CO)O[C@@H]2CO)[C@H](O)[C@@H](O)[C@@H]1N[C@H]1C=C(CO)[C@@H](O)[C@H](O)[C@H]1O (stereo partly shown) [acarbose] | – | – | – | – | – | – | – | – | – | – | – | – | – | – | – | – | – | – | – | – | IC50 (α-Glu; previous work): 376 ± 4.4 µM
4 | O=c1cc(-c2ccc(O)cc2)oc2cc(O)cc(O)c12 [apigenin] | – | – | – | – | – | – | – | – | – | – | – | – | – | – | – | – | – | – | – | – | IC50 (α-Glu): 10.5 ± 0.05 µM
